According to patent publication US20170107212A1, “NOVEL COMPOUNDS” (Bayer Pharma Aktiengesellschaft, priority 2014, published 2017):
Structures can show the parent of a compound that is named as a salt.

Legend:
[1] = test system: constitutive active colorectal cancer cell (CRC) Wnt pathway, HCT116 TOPFlash; test: Cellular reporter assay, HCT116 Super TopFlash (constitutive active Wnt pathway), luciferase expression; type: cell-based; details: HCT116 Super TopFlash reporter cells, 36 hours incubation, dilution series 50 μM to 15 nM
Procedure, shortened: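 HCT116 cells stably carrying Super TopFlash (β-catenin ΔS45, constitutive Wnt) run in parallel with FOP control line; compounds 50 μM to 15 nM (3.16-fold) in CAFTY buffer pH 7.4 with 2 mM Ca2+, 0.01% BSA, 36 h at 37 °C. Luciferase luminescence read as Wnt activity.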

HCT116 FOPFlash = test: Control reporter assay, HCT116 FOP control vector (non-functional TCF elements), luciferase expression; type: cell-based; details: HCT116 FOP control reporter cells, 36 hours incubation, dilution series 50 μM to 15 nM
Procedure, shortened: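 Stable HCT116 cells carrying FOP vector (randomized non-functional TCF sites) plus pcDNA3, run in parallel with TOP line; compounds 50 μM to 15 nM (3.16-fold steps) added in CAFTY buffer pH 7.4 with 2 mM Ca2+, 0.01% BSA. Incubated 36 h at 37 °C, 5% CO2; luciferase luminescence read.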

IC50 ([1]; Homo sapiens, HCT-116, 36 h) [µM] | IC50 (HCT116 FOPFlash; Homo sapiens, HCT-116, 36 h) [µM] | SMILES | other results
25.3 | ≥ 50 | Cc1nc(-c2nnc(NC(=O)c3ccc(OC(F)(F)F)c(NC(=O)CN4CCOCC4)c3)s2)cs1 [Example 95, N-[5-(2-methyl-1,3-thiazol-4-yl)-1,3,4-thiadiazol-2-yl]-3-[(morpholin-4-ylacetyl)amino]-4-(trifluoromethoxy)benzamide] | 
0.0815 | ≥ 50 | Nc1ccc(-c2ccc(NC(=O)c3ccc(OC(F)(F)F)c(NC(=O)CN4CCOCC4)c3)nc2)cn1 [Example 15, N-(6′-amino-3,3′-bipyridin-6-yl)-3-[(morpholin-4-ylacetyl)amino]-4-(trifluoromethoxy)benzamide] | 
0.282 | ≥ 50 | O=C(Nc1nnc(-c2cccnc2)s1)c1ccc(OC(F)(F)F)c(NC(=O)C2(N3CCOCC3)CC2)c1 [Example 2, 3-({[1-(morpholin-4-yl)cyclopropyl]carbonyl}amino)-N-[5-(pyridin-3-yl)-1,3,4-thiadiazol-2-yl]-4-(trifluoromethoxy)benzamide] | 
0.24 | ≥ 50 | CN1CCN(CC(=O)Nc2cc(C(=O)Nc3nnc(-c4cncc(C(F)(F)F)c4)s3)ccc2OC(F)(F)F)CC1 [Example 57, 3-{[(4-methylpiperazin-1-yl)acetyl]amino}-4-(trifluoromethoxy)-N-{5-[5-(trifluoromethyl)pyridin-3-yl]-1,3,4-thiadiazol-2-yl}benzamide] | 
1.65 | ≥ 50 | O=C(CN1CCOCC1)Nc1cc(C(=O)Nc2nnc(-c3cscn3)s2)ccc1OC(F)(F)F [Example 67, 3-[(morpholin-4-ylacetyl)amino]-N-[5-(1,3-thiazol-4-yl)-1,3,4-thiadiazol-2-yl]-4-(trifluoromethoxy)benzamide] | 
41 | ≥ 50 | Cc1ncc(-c2nnc(NC(=O)c3ccc(OC(F)(F)F)c(NC(=O)CN4CCOCC4)c3)s2)s1 [Example 100, N-[5-(2-methyl-1,3-thiazol-5-yl)-1,3,4-thiadiazol-2-yl]-3-[(morpholin-4-ylacetyl)amino]-4-(trifluoromethoxy)benzamide] | 
0.31 | ≥ 50 | Nc1ccc(-c2nnc(NC(=O)c3ccc(OC(F)(F)F)c(NC(=O)C4(N5CCOCC5)CC4)c3)s2)cn1 [Example 49, N-[5-(6-aminopyridin-3-yl)-1,3,4-thiadiazol-2-yl]-3-({[1-(morpholin-4-yl)cyclopropyl]carbonyl}amino)-4-(trifluoromethoxy)benzamide] | 
≥ 50 | ≥ 50 | Cc1ncsc1-c1nnc(NC(=O)c2ccc(OC(F)(F)F)c(NC(=O)CN3CCOCC3)c2)s1 [Example 108, N-[5-(4-methyl-1,3-thiazol-5-yl)-1,3,4-thiadiazol-2-yl)-3-[(morpholin-4-ylacetyl)amino]-4-(trifluoromethoxy)benzamide] | 
0.18 | ≥ 50 | Cc1cncc(-c2nnc(NC(=O)c3ccc(OC(F)(F)F)c(NC(=O)CN4CCN(C)CC4)c3)s2)n1 [Example 102, 3-{[(4-methylpiperazin-1-yl)acetyl]amino}-N-[5-(6-methylpyrazin-2-yl)-1,3,4-thiadiazol-2-yl]-4-(trifluoromethoxy)benzamide] | 
≥ 50 | ≥ 50 | Cc1ccnc(-c2nnc(NC(=O)c3ccc(OC(F)(F)F)c(NC(=O)CN4CCOCC4)c3)s2)c1 [Example 93, N-[5-(4-methylpyridin-2-yl)-1,3,4-thiadiazol-2-yl]-3-[(morpholin-4-ylacetyl)amino]-4-(trifluoromethoxy)benzamide] | 
0.114 | ≥ 50 | CN1CCN(CC(=O)Nc2cc(C(=O)Nc3nnc(-c4cncc(Cl)c4)s3)ccc2OC(F)(F)F)CC1 [Example 40, formic acid-N-[5-(5-chloropyridin-3-yl)-1,3,4-thiadiazol-2-yl]-3-{[(4-methylpiperazin-1-yl)acetyl]amino}-4-(trifluoromethoxy)benzamide (1:1)] | 
21.2 | ≥ 50 | O=C(CN1CCOCC1)Nc1cc(C(=O)Nc2nnc(-c3cccnc3)s2)ccc1OC(F)(F)F [Example 82, 3-[(morpholin-4-ylacetyl)amino]-N-[5-(pyridin-3-yl)-1,3,4-thiadiazol-2-yl]-4-(trifluoromethoxy)benzamide] | 
35.6 | ≥ 50 | Cc1nccnc1-c1nnc(NC(=O)c2ccc(OC(F)(F)F)c(NC(=O)CN3CCOCC3)c2)s1 [Example 91, N-[5-(3-methylpyrazin-2-yl)-1,3,4-thiadiazol-2-yl]-3-[(morpholin-4-ylacetyl)amino]-4-(trifluoromethoxy)benzamide] | 
≥ 50 | ≥ 50 | O=C(CN1CCOCC1)Nc1cc(C(=O)Nc2nnc(-c3nccs3)s2)ccc1OC(F)(F)F [Example 101, 3-[(morpholin-4-ylacetyl)amino]-N-[5-(1,3-thiazol-2-yl)-1,3,4-thiadiazol-2-yl]-4-(trifluoromethoxy)benzamide] | 

More lines, now with the values behind:

SMILES | IC50 ([1]; Homo sapiens, HCT-116, 36 h) [µM] | IC50 (HCT116 FOPFlash; Homo sapiens, HCT-116, 36 h) [µM] | other results
CC(C(=O)Nc1cc(C(=O)Nc2ccc(-c3cccnc3F)nc2)ccc1OC(F)(F)F)N1CCOCC1 (stereo not drawn) [Example 5, N-(2′-fluoro-2,3′-bipyridin-5-yl)-3-{[2-(morpholin-4-yl)propanoyl]amino}-4-(trifluoromethoxy)benzamide] | 0.0165 | ≥ 50 | 
CN1CCN(CC(=O)Nc2cc(C(=O)Nc3ccc(-c4cncnc4)cn3)ccc2OC(F)(F)F)CC1 [Example 46, 3-{[(4-methylpiperazin-1-yl)acetyl]amino}-N-[5-(pyrimidin-5-yl)pyridin-2-yl]-4-(trifluoromethoxy)benzamide] | 0.0183 | ≥ 50 | 
O=C(Nc1nnc(-c2cccnc2)s1)c1ccc(Cl)c(NC(=O)C2(N3CCN(C4CC4)CC3)CC2)c1 [Example 85, 4-chloro-3-({[1-(4-cyclopropylpiperazin-1-yl)cyclopropyl]carbonyl}amino)-N-[5-(pyridin-3-yl)-1,3,4-thiadiazol-2-yl]benzamide] | 12.5 | ≥ 50 | 
CN1CCN(CC(=O)Nc2cc(C(=O)Nc3nnc(-c4cccnc4)s3)ccc2Cl)CC1 [Example 84, 4-chloro-3-{[(4-methylpiperazin-1-yl)acetyl]amino}-N-[5-(pyridin-3-yl)-1,3,4-thiadiazol-2-yl]benzamide hydrochloride] | ≥ 50 | ≥ 50 | 
CN1CCN(CC(=O)Nc2cc(C(=O)Nc3nnc(-c4cccnc4)s3)ccc2OC2CC2)CC1 [Example 34, 4-(cyclopropyloxy)-3-{[(4-methylpiperazin-1-yl)acetyl]amino}-N-[5-(pyridin-3-yl)-1,3,4-thiadiazol-2-yl]benzamide] | 0.38 | 14 | 
CN1CCN(CC(=O)Nc2cc(C(=O)Nc3cnc(-c4cnc(N)cn4)cn3)ccc2OC(F)(F)F)CC1 [Example 59, N-(5′-amino-2,2′-bipyrazin-5-yl)-3-{[(4-methylpiperazin-1-yl)acetyl]amino}-4-(trifluoromethoxy)benzamide] | 4.1 | ≥ 50 | 
Cc1cccnc1-c1nnc(NC(=O)c2ccc(OC(F)(F)F)c(NC(=O)CN3CCN(C)CC3)c2)s1 [Example 42, 1-methyl-4-(2-{[5-{[5-(3-methylpyridin-2-yl)-1,3,4-thiadiazol-2-yl]carbamoyl}-2-(trifluoromethoxy)phenyl]amino}-2-oxoethyl)piperazin-1-ium hexafluorophosphate] |  |  | IC50 ([1]; Homo sapiens, HCT-116): 0.32 µM; IC50 (HCT116 FOPFlash; Homo sapiens, HCT-116): 38.5 µM
O=C(CN1CCOCC1)Nc1cc(C(=O)Nc2ccc(-c3cccnc3)cn2)ccc1OC(F)(F)F [Example 14, N-(3,3′-bipyridin-6-yl)-3-[(morpholin-4-ylacetyl)amino]-4-(trifluoromethoxy)benzamide] | 0.0423 | ≥ 50 | 
O=C(CN1CCN(C2CC2)CC1)Nc1cc(C(=O)Nc2nnc(-c3cccnc3)s2)ccc1Cl [Example 86, 4-chloro-3-{[(4-cyclopropylpiperazin-1-yl)acetyl]amino}-N-[5-(pyridin-3-yl)-1,3,4-thiadiazol-2-yl]benzamide] | 44 | ≥ 50 | 
CN1CCN(CC(=O)Nc2cc(C(=O)Nc3ccc(-c4cccnc4)cn3)ccc2OC(F)(F)F)CC1 [Example 11, N-(3,3′-bipyridin-6-yl)-3-{[(4-methylpiperazin-1-yl)acetyl]amino}-4-(trifluoromethoxy)benzamide] | 0.0188 | ≥ 50 | 
CN1CCN(C2(C(=O)Nc3cc(C(=O)Nc4nnc(-c5ccccn5)s4)ccc3OC(F)(F)F)CC2)CC1 [Example 18, 3-({[1-(4-methylpiperazin-1-yl)cyclopropyl]carbonyl}amino)-N-[5-(pyridin-2-yl)-1,3,4-thiadiazol-2-yl]-4-(trifluoromethoxy)benzamide hydrochloride] | 0.106 | 10.3 | 
CN1CCN(CC(=O)Nc2cc(C(=O)Nc3nnc(-c4cccnc4)s3)c(F)cc2OC(F)(F)F)CC1 [Example 77, 2-fluoro-5-{[(4-methylpiperazin-1-yl)acetyl]amino}-N-[5-(pyridin-3-yl)-1,3,4-thiadiazol-2-yl]-4-(trifluoromethoxy)benzamide] | 0.18 | ≥ 50 | 
Cc1ccncc1-c1nnc(NC(=O)c2ccc(OC(F)(F)F)c(NC(=O)CN3CCN(C)CC3)c2)s1 [Example 37, 3-{[(4-methylpiperazin-1-yl)acetyl]amino}-N-[5-(4-methylpyridin-3-yl)-1,3,4-thiadiazol-2-yl]-4-(trifluoromethoxy)benzamide] |  |  | IC50 [1]: 0.61 µM; IC50 (HCT116 FOPFlash): ≥ 50 µM
